Values of other authors, collected in US20040157925A1, “Stable pharmaceutical composition of pravastatin” (priority 2001, published 2004).

Settings: pH 3 or less as found in the stomach; degrades to lactone and 3-a-hydroxy-isopravastatin

In the case of `CC[C@H](C)C(=O)O[C@H]1C[C@H](O)C=C2C=C[C@H](C)[C@H](CC[C@@H](O)C[C@@H](O)CC(=O)O)[C@H]21` [Pravastatin sodium, (+)-(3R, 5R)-3,5-dihydroxy-7-[(1 S,2S,6S, 8S, 8aR)-6-hydroxy-2-methyl-8-[(S)-2-methylbutyryloxy]-1,2,6,7,8,8a-hexahydro-1-naphthyl]heptanoate], the “Stability in a low pH environment” value is listed as “very unstable”.
